Test results taken from patent US20260028326A1, “COMPOUND BASED ON ISOINDOLINE-SUBSTITUTED GLUTARIMIDE BACKBONE AND USE THEREOF” (GLUETACS THERAPEUTICS (SHANGHAI) CO., LTD., priority 2022, published 2026).

Legend:
[1] = biological target: IKZF3 protein (Homo sapiens (Human), UniProt Q96SW2+Q9UKT9); experiment: Western-blot assay of substrate protein degradation in hPBMC, IKZF3; assay type: cell-based; details: hPBMC cells, compound 500 nM, 24 hours, Western blot
[2] = biological target: IKZF1 protein (Homo sapiens (Human), UniProt Q13422+Q96SW2); experiment: Western-blot assay of substrate protein degradation in hPBMC, IKZF1; assay type: cell-based; details: hPBMC cells, compound 500 nM, 24 hours, Western blot
IKZF1 protein, sequence (Q13422 whole entry): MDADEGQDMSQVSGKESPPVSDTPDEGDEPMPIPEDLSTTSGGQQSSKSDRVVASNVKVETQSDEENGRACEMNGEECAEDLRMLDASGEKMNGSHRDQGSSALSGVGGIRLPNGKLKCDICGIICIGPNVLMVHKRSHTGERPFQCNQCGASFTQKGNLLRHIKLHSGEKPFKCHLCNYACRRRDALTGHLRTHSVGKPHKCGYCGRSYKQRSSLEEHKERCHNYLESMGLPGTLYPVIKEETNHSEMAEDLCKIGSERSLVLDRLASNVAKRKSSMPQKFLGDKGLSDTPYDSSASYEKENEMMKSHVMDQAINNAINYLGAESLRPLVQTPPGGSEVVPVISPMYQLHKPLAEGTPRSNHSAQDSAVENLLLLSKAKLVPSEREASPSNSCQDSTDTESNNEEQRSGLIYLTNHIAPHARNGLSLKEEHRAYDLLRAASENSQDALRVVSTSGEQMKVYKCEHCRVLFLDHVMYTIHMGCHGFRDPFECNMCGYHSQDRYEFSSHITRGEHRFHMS
IKZF1 protein, sequence (Q96SW2 whole entry): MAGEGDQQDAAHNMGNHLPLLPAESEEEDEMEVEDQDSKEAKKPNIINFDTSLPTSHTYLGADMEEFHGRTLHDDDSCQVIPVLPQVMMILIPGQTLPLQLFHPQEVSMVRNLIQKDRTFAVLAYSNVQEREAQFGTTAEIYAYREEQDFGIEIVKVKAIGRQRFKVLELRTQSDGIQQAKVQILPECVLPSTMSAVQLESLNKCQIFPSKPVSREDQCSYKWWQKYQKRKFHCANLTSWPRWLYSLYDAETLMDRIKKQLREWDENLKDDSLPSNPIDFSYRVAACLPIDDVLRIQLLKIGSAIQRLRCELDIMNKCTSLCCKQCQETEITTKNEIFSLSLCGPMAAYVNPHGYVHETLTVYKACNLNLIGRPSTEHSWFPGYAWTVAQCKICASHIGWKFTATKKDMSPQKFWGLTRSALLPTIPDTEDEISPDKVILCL
IKZF1 protein, sequence (Q16531 whole entry partner): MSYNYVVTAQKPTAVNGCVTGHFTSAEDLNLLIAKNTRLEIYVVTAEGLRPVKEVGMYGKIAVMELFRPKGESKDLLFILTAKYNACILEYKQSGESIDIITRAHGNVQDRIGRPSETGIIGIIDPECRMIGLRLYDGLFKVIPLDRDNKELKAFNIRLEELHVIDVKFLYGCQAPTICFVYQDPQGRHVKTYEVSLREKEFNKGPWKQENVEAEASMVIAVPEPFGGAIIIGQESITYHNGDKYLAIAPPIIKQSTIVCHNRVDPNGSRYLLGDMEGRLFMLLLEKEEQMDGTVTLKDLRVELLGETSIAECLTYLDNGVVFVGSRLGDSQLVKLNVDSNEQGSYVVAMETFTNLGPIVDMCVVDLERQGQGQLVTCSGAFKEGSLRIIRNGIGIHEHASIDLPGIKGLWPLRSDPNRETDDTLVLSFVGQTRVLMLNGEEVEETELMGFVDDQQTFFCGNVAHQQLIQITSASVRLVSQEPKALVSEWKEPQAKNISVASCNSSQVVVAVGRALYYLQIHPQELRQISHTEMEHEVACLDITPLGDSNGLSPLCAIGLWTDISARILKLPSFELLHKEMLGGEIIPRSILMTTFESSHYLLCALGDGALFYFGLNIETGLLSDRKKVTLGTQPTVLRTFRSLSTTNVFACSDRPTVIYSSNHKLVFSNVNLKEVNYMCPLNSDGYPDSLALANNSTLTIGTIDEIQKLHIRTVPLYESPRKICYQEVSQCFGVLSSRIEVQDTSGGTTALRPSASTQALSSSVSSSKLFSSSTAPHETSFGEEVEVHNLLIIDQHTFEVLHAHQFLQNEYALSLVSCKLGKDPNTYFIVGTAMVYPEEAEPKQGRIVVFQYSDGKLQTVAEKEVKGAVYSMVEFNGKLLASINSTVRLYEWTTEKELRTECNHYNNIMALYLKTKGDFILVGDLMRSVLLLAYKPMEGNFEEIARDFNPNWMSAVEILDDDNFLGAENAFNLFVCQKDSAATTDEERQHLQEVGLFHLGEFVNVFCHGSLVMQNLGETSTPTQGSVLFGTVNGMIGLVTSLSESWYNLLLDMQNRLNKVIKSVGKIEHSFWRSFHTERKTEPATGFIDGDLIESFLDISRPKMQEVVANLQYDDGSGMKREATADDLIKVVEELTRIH

[3] = biological target: GSPT1 protein (Homo sapiens (Human), UniProt P15170+Q96SW2); experiment: Western-blot assay of substrate protein degradation in hPBMC, GSPT1; assay type: cell-based; details: hPBMC cells, compound 500 nM, 24 hours, Western blot
GSPT1 protein, sequence (P15170 whole entry): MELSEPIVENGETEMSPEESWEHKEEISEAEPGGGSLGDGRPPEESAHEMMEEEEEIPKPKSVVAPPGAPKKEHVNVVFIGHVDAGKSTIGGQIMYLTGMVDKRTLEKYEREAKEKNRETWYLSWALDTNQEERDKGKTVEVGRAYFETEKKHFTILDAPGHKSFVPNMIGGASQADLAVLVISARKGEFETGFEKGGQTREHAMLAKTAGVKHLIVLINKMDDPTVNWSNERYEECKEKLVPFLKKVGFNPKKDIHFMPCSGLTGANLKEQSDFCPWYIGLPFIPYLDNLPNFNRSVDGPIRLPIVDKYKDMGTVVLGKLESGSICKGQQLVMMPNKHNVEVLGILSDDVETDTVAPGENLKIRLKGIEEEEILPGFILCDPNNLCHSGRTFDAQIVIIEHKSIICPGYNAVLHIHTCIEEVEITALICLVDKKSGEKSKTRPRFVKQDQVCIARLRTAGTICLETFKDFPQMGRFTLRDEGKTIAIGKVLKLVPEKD
GSPT1 protein, sequence (Q96SW2 whole entry): as the sequence (Q96SW2 whole entry) above
GSPT1 protein, sequence (Q16531 whole entry partner): as the sequence (Q16531 whole entry partner) above

[4] = biological target: human Cereblon WT GST-tagged protein (Homo sapiens (Human), UniProt Q96SW2); experiment: CRBN-binding affinity, HTRF (CEREBLON BINDING kit)
human Cereblon WT GST-tagged protein, sequence (Q96SW2 whole entry): as the sequence (Q96SW2 whole entry) above
Outline: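 HTRF competition readout: compounds compete with a thalidomide-Re conjugate for GST-tagged wild-type human CRBN detected via Eu-labelled anti-GST antibody. Inhibition rate derived relative to protein-free blank wells.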

IKZF3 protein, sequence (Q9UKT9 whole entry): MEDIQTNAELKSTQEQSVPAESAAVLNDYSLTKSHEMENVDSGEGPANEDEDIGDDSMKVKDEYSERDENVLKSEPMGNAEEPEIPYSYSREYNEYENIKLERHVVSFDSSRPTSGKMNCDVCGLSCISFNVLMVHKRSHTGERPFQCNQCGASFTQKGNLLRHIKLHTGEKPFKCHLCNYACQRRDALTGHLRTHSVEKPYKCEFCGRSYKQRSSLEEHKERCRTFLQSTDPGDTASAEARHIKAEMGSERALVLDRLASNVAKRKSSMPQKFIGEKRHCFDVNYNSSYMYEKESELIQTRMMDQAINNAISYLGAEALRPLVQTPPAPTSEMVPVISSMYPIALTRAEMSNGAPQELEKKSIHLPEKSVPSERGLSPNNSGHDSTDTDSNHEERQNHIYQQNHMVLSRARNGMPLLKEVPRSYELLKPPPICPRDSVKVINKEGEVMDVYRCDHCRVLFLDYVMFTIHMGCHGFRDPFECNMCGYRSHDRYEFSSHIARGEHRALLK
IKZF3 protein, sequence (Q96SW2 whole entry): as the sequence (Q96SW2 whole entry) above
IKZF3 protein, sequence (Q16531 whole entry partner): as the sequence (Q16531 whole entry partner) above

Compound | residual substrate protein level, IKZF3 [1] | residual substrate protein level, IKZF1 [2] | residual substrate protein level, GSPT1 [3] | IC50 [4]
O=C1CCC(N2Cc3cc(CN4CCN(Cc5ccccc5-c5ccc(F)cc5)CC4)cc(F)c3C2=O)C(=O)N1 (stereo not drawn) [GT-05604, 3-(7-fluoro-5-((4-((4′-fluoro-[1,1′-biphenyl]-2-yl)methyl)piperazin-1-yl)methyl)-1-oxoisoindolin-2-yl)piperidine-2,6-dione] | B (B represents a residual substrate protein level of >50%) | B (B represents a residual substrate protein level of >50%) | A (A represents a residual substrate protein level of <50%) | 720 nM
CC1(C)CCC(CN2C[C@@H]3C[C@H]2CN3Cc2ccc3c(c2)CN(C2CCC(=O)NC2=O)C3=O)=C(c2ccc(Cl)cc2)C1 (stereo partly drawn) [GT-03997, 3-(5-(((1S,4S)-5-((4′-chloro-5,5-dimethyl-3,4,5,6-tetrahydro-[1,1′-biphenyl]-2-yl)methyl)-2,5-diazabicyclo[2.2.1]heptan-2-yl)methyl)-1-oxoisoindolin-2-yl)piperidine-2,6-dione] | A (A represents a residual substrate protein level of <50%) | A (A represents a residual substrate protein level of <50%) | B (B represents a residual substrate protein level of >50%) | 770 nM
CC1(C)CCC(C(=O)N2CCN(Cc3ccc4c(c3)CN(C3CCC(=O)NC3=O)C4=O)C(C(F)(F)F)C2)=C(c2ccc(Cl)cc2)C1 (stereo not drawn) [GT-05845, 3-(5-((4-(4′-chloro-5,5-dimethyl-3,4,5,6-tetrahydro-[1,1′-biphenyl]-2-carbonyl)-2-(trifluoromethyl)piperazin-1-yl)methyl)-1-oxoisoindolin-2-yl)piperidine-2,6-dione] | A (A represents a residual substrate protein level of <50%) | B (B represents a residual substrate protein level of >50%) | B (B represents a residual substrate protein level of >50%) | 760 nM
CC1(C)CCC(C(=O)N2CC3CN(Cc4ccc5c(c4)CN(C4CCC(=O)NC4=O)C5=O)CC3C2)=C(c2ccc(Cl)cc2)C1 (stereo not drawn) [GT-05658, 3-(5-((5-(4′-chloro-5,5-dimethyl-3,4,5,6-tetrahydro-[1,1′-biphenyl]-2-carbonyl)hexahydropyrrolo[3,4-c]pyrrol-2(1H)-yl)methyl)-1-oxoisoindolin-2-yl)piperidine-2,6-dione] | A (A represents a residual substrate protein level of <50%) | B (B represents a residual substrate protein level of >50%) | B (B represents a residual substrate protein level of >50%) | 740 nM
CC1(C)CCC(CN2CC3CC(C2)N3Cc2ccc3c(c2F)CN(C2CCC(=O)NC2=O)C3=O)=C(c2ccc(Cl)cc2)C1 (stereo not drawn) [GT-03493, 3-(5-((3-((4′-chloro-5,5-dimethyl-3,4,5,6-tetrahydro-[1,1′-biphenyl]-2-yl)methyl)-3,6-diazabicyclo[3.1.1]heptan-6-yl)methyl)-4-fluoro-1-oxoisoindolin-2-yl)piperidine-2,6-dione] | A (A represents a residual substrate protein level of <50%) | A (A represents a residual substrate protein level of <50%) | A (A represents a residual substrate protein level of <50%) | 750 nM
CC1(C)CCC(CN2CCN(Cc3ccc4c(c3)C(=O)N(C3CCC(=O)NC3=O)C4=O)CC2)=C(c2ccc(F)cc2)C1 (stereo not drawn) [GT-05395, 2-(2,6-dioxopiperidin-3-yl)-5-((4-((4′-fluoro-5,5-dimethyl-3,4,5,6-tetrahydro-[1,1′-biphenyl]-2-yl)methyl)piperazin-1-yl)methyl)isoindoline-1,3-dione] | A (A represents a residual substrate protein level of <50%) | B (B represents a residual substrate protein level of >50%) | A (A represents a residual substrate protein level of <50%) | 1610 nM
